Results reported in ChEMBL document CHEMBL5257026, “Progress and prospects on DENV protease inhibitors” (Eur J Med Chem, 2016).
pIC50, pKi: −log10 of the molar value. Starred links: 1 amine or outer side, 2 acyl side, 3 side chain; linkers in the order of their positions; H or OH if unused. Non-standard residues stand in square brackets, D forms with d. Residues, ends and D or L forms follow the SMILES beside them. *: point of attachment. Arg(ψCOCO) = N=C(N)NCCC[C@H](N[*:1])C(=O)C(=O)[*:2]; Nle = CCCC[C@H](N)C(=O)O; PhAc = O=C(Cc1ccccc1)*; Bz = O=C(c1ccccc1)*

Experiments:
[1] = Inhibition of DENV2 NS2B-G4-S-G4-NS3 protease using Bz-nKRR-AMC as substrate preincubated for 30 mins followed by substrate addition by fluorescence microplate reader assay; design: species or system dengue virus type 2
[2] = Inhibition of DENV2 recombinant NS2B-NS3 protease expressed in Escherichia coli JM109 using acetyl-TTSTRR-para-nitroaniline as substrate preincubated for 10 mins followed by substrate addition measured after 120 mins by spectrophotometric analysis; design: species or system dengue virus type 2
[3] = Inhibition of DENV2 NS2B-NS3 protease using Boc-Gly-Lys-Arg-AMC as substrate incubated for 30 mins by fluorescence assay; design: species or system dengue virus type 2
[4] = Inhibition of DENV1 N-terminally hexa-His tagged NS2B (48 to 95 residues) -NS3 (1 to 184 residues) protease expressed in Escherichia coli XL1 Blue using QXL570-Phe-Ala-Ser-Gly-Lys-Arg-Ser-Gln-Ile-Gly-Leu-Lys(5-TAMRA)-NH2 as substrate and measured for 15 mins by FRET assay; design: species or system dengue virus type 1
[5] = Inhibition of DENV4 N-terminally hexa-His tagged NS2B (48 to 95 residues) -NS3 (1 to 184 residues) protease expressed in Escherichia coli XL1 Blue using QXL570-Phe-Ala-Ser-Gly-Lys-Arg-Ser-Gln-Ile-Gly-Leu-Lys(5-TAMRA)-NH2 as substrate and measured for 15 mins by FRET assay; design: species or system dengue virus type 4
[6] = Inhibition of DENV3 N-terminally hexa-His tagged NS2B (48 to 95 residues) -NS3 (1 to 184 residues) protease expressed in Escherichia coli XL1 Blue using QXL570-Phe-Ala-Ser-Gly-Lys-Arg-Ser-Gln-Ile-Gly-Leu-Lys(5-TAMRA)-NH2 as substrate and measured for 15 mins by FRET assay; design: species or system dengue virus type 3
[7] = Inhibition of DENV2 N-terminally hexa-His tagged NS2B (48 to 95 residues) -NS3 (1 to 184 residues) protease expressed in Escherichia coli XL1 Blue using QXL570-Phe-Ala-Ser-Gly-Lys-Arg-Ser-Gln-Ile-Gly-Leu-Lys(5-TAMRA)-NH2 as substrate and measured for 15 mins by FRET assay; design: species or system dengue virus type 2
[8] = Inhibition of DENV2 hydrophilic domain of NS2B (48 aminoacids)-NS3 (185 aminoacids) protease using Bz-Nle-Lys-Arg-Arg-AMC as substrate preincubated for 15 mins followed by substrate addition by spectrofluorometeric assay; design: species or system dengue virus type 2
[9] = Inhibition of DENV2 recombinant CF40gly(T)R fused NS2B-NS3 protease expressed in Escherichia coli XL1-Blue MRF using Boc-Gly-Arg-Arg-MCA as substrate incubated for 30 mins by fluorescence spectrophotometeric assay; design: species or system dengue virus type 2
[10] = Inhibition of DENV2 NS2B-NS3 protease expressed in Escherichia coli BL21 (DE3) using Bz-Nle-Lys-Arg-Arg-AMC as substrate preincubated for 30 mins followed by substrate addition by fluorescence plate reader analysis; design: species or system dengue virus type 2
[11] = Inhibition of DENV2 recombinant NS2B-NS3 protease expressed in Escherichia coli C41 using GRR-AMC as substrate incubated for 15 mins by Lineweaver-Burk plot analysis; design: species or system dengue virus type 2
[12] = Inhibition of DENV2 recombinant CF40-glycine fused NS2B-NS3 protease expressed in Escherichia coli SG13009 using Ac-TTSTRR-pNA as substrate preincubated for 50 mins followed by substrate addition by spectrophotometric assay; design: species or system dengue virus type 2
[13] = Inhibition of DENV2 recombinant NS2B-(G4-S-G4)-NS3 protease using Bz-nKRR-AMC as substrate preincubated for 30 mins followed by substrate addition measured after 30 mins by fluorescence spectrophotometric analysis; design: species or system dengue virus type 2

N#Cc1ccc(OC(=O)c2ccc(NC(=N)N)cc2)cc1
pIC50 [1]: 4.42

CCN1/C(=C/C=C/c2oc3ccc4ccccc4c3[n+]2CC)Oc2ccc3ccccc3c21
pIC50 [2]: 4.57

Cc1cc(=O)cc2oc3cc(N)c(-c4c(C)cc(O)cc4O)c(C)c3nc1-2
pKi [3]: 4.46

N=C(N)Nc1ccc(OC(=O)c2ccc(NC(=N)N)cc2)cc1
pIC50 [1]: 5.11

Cc1cc(NC(=O)O[C@@H]2C[C@H](Oc3ccc(NC(=N)N)cc3N=C(N)N)[C@@H](N=C(N)N)C[C@H]2N=C(N)N)ccc1F
pIC50 [4]: 5.59
pIC50 [5]: 4.68
pIC50 [6]: 5.09
pIC50 [7]: 5.15

N=C(N)Nc1ccc(NC(=O)O[C@H]2C[C@@H](OC(=O)Nc3ccc(NC(=N)N)cc3)[C@H](NC(=N)N)C[C@@H]2NC(=N)N)cc1
pIC50 [4]: 4.99
pIC50 [5]: 4.16
pIC50 [6]: 4.74
pIC50 [7]: 4.77

O=C(Nc1nc2cc(O)c(O)cc2s1)c1ccccc1Sc1ccc(C(F)(F)F)cc1
pIC50 [2]: 5.44

O=C(Nc1cccs1)c1ccccc1Sc1ccc([N+](=O)[O-])cc1
pIC50 [2]: 4.01

N=C(N)Nc1ccc(O[C@H]2C[C@@H](Oc3ccc(NC(=N)N)cc3)[C@H](NC(=N)N)C[C@@H]2NC(=N)N)cc1
pIC50 [4]: 5.30
pIC50 [5]: 4.70
pIC50 [6]: 5.05
pIC50 [7]: 4.96

N=C(N)Nc1ccccc1O[C@H]1C[C@@H](Oc2ccccc2NC(=N)N)[C@H](NC(=N)N)C[C@@H]1NC(=N)N
pIC50 [4]: 5.06
pIC50 [5]: 4.26
pIC50 [6]: 4.77
pIC50 [7]: 4.49

N=C(N)Nc1ccc(N[C@H]2C[C@@H](NC(=N)N)[C@H](Oc3ccc(NC(=N)N)cc3)C[C@@H]2Oc2ccc(NC(=N)N)cc2)cc1
pIC50 [4]: 5.28
pIC50 [5]: 4.91
pIC50 [6]: 5.40
pIC50 [7]: 5.00

O=C(Nc1nc2ccc([N+](=O)[O-])cc2s1)c1ccccc1Sc1ccc(C(F)(F)F)cc1
pIC50 [2]: 4.66

O=C(Nc1nc2ccc([N+](=O)[O-])cc2s1)c1ccccc1Sc1ccc([N+](=O)[O-])cc1
pIC50 [2]: 4.47

Oc1c(C(Cc2nccs2)c2ccccc2OCc2ccccc2)ccc2ccccc12 (stereo not drawn)
pIC50 [8]: 5.63

Oc1c(C(Cc2nccs2)c2cccc(OCc3ccccc3)c2)ccc2ccccc12 (stereo not drawn)
pIC50 [8]: 5.53

c1ccc([C@H]2Oc3ccccc3[C@@H]3Oc4ccccc4C[C@H]23)cc1
pKi [9]: 3.29

Oc1c(C(Cc2nc3ccccc3s2)c2ccccc2OCc2ccccc2)ccc2ccccc12 (stereo not drawn)
pIC50 [8]: 5.44

N=C(N)Nc1ccc(O[C@H]2C[C@@H](O)[C@H](NC(=N)N)C[C@@H]2NC(=N)N)c(NC(=N)N)c1
pIC50 [4]: 5.01
pIC50 [5]: 4.24
pIC50 [6]: 4.70
pIC50 [7]: 4.82

N=C(N)Nc1ccc(O[C@H]2C[C@H](F)[C@H](NC(=N)N)C[C@@H]2NC(=N)N)c(NC(=N)N)c1
pIC50 [4]: 5.06
pIC50 [5]: 4.28
pIC50 [6]: 4.76
pIC50 [7]: 4.69

c1ccc2[nH]c(-c3ccc(Nc4nnc(Nc5ccc(-c6nc7ccccc7[nH]6)cc5)c5ccccc45)cc3)nc2c1
pIC50 [10]: 5.96

N=C(N)Nc1cc(NC(=N)N)c2ccccc2c1O[C@H]1C[C@@H](O)[C@H](NC(=N)N)C[C@@H]1NC(=N)N
pIC50 [4]: 5.10
pIC50 [5]: 4.47
pIC50 [6]: 5.07
pIC50 [7]: 5.22

CCCCCCCCCC[N+](CC)(CC)CCOc1ccc2c(c1)C(=O)c1cc(OCC[N+](CC)(CC)CCCCCCCCCC)ccc1-2
pIC50 [2]: 4.81

O=C1C[C@@H](c2ccc3c(c2)OCCO3)Oc2ccccc21
pKi [9]: 3.73

O=c1cc(-c2ccccc2)oc2ccc(-c3nnn[nH]3)cc12
pKi [9]: 4.16

Oc1c(C(Cc2nc3ccccc3s2)c2cccc(OCc3ccccc3)c2)ccc2ccccc12 (stereo not drawn)
pIC50 [8]: 6.04

Cc1cc(C)c2c(c1)O[C@@H](c1ccc(N(C)C)cc1)CC2=O
pKi [9]: 3.92

Cc1[nH]c2ccccc2c1C(=O)NCc1ccc(CN2CCCC2)cc1
pIC50 [1]: 3.52

CC1CNC(c2ccc(Nc3nnc(Nc4ccc(C5=NC(C)CN5)cc4)c4ccccc34)cc2)=N1 (stereo not drawn)
pIC50 [10]: 5.05

CCN1/C(=C/C=C/c2oc3ccc(-c4ccccc4)cc3[n+]2CC)Oc2ccc(-c3ccccc3)cc21
pIC50 [2]: 4.69

CC(=O)N[C@@H](CCC(=O)O)C(=O)N[C@H](C(=O)N[C@@H](CCCCN)C(=O)N[C@@H](CCCCN)C(=O)N[C@@H](CCC(N)=O)C(=O)N[C@@H](CCCNC(=N)N)C(N)=O)C(C)C (Ac-EVKKQR-NH2)
pKi [11]: 4.18

CC(=O)N[C@@H](Cc1ccccc1)C(=O)N[C@@H](C)C(=O)N[C@@H](C)C(=O)NCC(=O)N[C@@H](CCCNC(=N)N)C(=O)N[C@@H](CCCCN)C(N)=O (Ac-FAAGRK-NH2)
pKi [11]: 4.59

CC(=O)N[C@@H](Cc1ccccc1)C(=O)N[C@@H](C)C(=O)N[C@@H](C)C(=O)NCC(=O)N[C@@H](CCCNC(=N)N)C(=O)N[C@H](C=O)CCCNC(=N)N (Ac-FAAGRR-aldehyde)
pKi [12]: 4.80

CC(=O)N[C@@H](Cc1ccccc1)C(=O)N[C@@H](C)C(=O)N[C@@H](C)C(=O)NCC(=O)N[C@@H](CCCNC(=N)N)C(=O)N[C@@H](CCCNC(=N)N)C(=O)C(=O)N[C@@H](CO)C(=O)N[C@@H](CC(C)C)C(N)=O (Ac-FAAGR[Arg(ψCOCO)]SL-NH2)
pKi [12]: 4.33

CC(=O)NCC(=O)N[C@@H](CCCCN)C(=O)N[C@@H](CCCNC(=N)N)C(N)=O (Ac-Gly-Lys-Arg-NH2)
pKi [11]: 3.82

CC(=O)N[C@@H](CCCCN)C(=O)N[C@@H](CCCNC(=N)N)C(N)=O (Ac-Lys-Arg-NH2)
pKi [11]: 3.92

CC(=O)N[C@@H](CCCCN)C(=O)N[C@@H](CCCCN)C(=O)N[C@@H](CCCNC(=N)N)C(N)=O (Ac-Lys-Lys-Arg-NH2)
pKi [11]: 4.65

CC(=O)N[C@@H](CCCNC(=N)N)C(=O)N[C@H](C(=O)N[C@@H](CO)C(=O)N[C@@H](CCCCN)C(=O)N[C@@H](CCCCN)C(=O)N[C@@H](CCCNC(=N)N)C(N)=O)[C@@H](C)O (Ac-RTSKKR-NH2)
pKi [11]: 4.92

CC(=O)N[C@@H](CO)C(=O)N[C@@H](CCCCN)C(=O)N[C@@H](CCCCN)C(=O)N[C@@H](CCCNC(=N)N)C(N)=O (Ac-SKKR-NH2)
pKi [11]: 3.73

CC(=O)N[C@H](C(=O)N[C@H](C(=O)N[C@@H](CO)C(=O)N[C@H](C(=O)N[C@@H](CCCNC(=N)N)C(=O)N[C@@H](CCCNC(=N)N)C(N)=O)[C@@H](C)O)[C@@H](C)O)[C@@H](C)O (Ac-TTSTRR-NH2)
pKi [11]: 4.34

CC(=O)N[C@H](C(=O)N[C@H](C(=O)N[C@@H](CO)C(=O)N[C@H](C(=O)N[C@@H](CCCNC(=N)N)C(=O)N[C@@H](CCCNC(=N)N)C(=O)C(=O)NCC(=O)N[C@H](C(=O)NCC(=O)N[C@@H](CC(N)=O)C(N)=O)[C@@H](C)O)[C@@H](C)O)[C@@H](C)O)[C@@H](C)O (Ac-TTSTR[Arg(ψCOCO)]GTGN-NH2)
pKi [12]: 3.43

CC(=O)N[C@H](C(=O)N[C@H](C(=O)N[C@@H](CO)C(=O)N[C@H](C(=O)N[C@@H](CCCNC(=N)N)C(=O)N[C@@H](CCCNC(=N)N)C(=O)C(=O)N[C@@H](CO)C(=O)N[C@@H](CC(C)C)C(N)=O)[C@@H](C)O)[C@@H](C)O)[C@@H](C)O (Ac-TTSTR[Arg(ψCOCO)]SL-NH2)
pKi [12]: 3.66

CCCC[C@H](NC(=O)c1ccccc1)C(=O)N[C@@H](CCCCN)C(=O)N[C@@H](CCCNC(=N)N)C(=O)N[C@H](C=O)CCCNC(=N)N (Bz-[Nle]KRR-aldehyde)
pIC50 [13]: 5.02

N=C(N)NCCC[C@@H](C=O)NC(=O)[C@H](CCCNC(=N)N)NC(=O)[C@H](CCCCN)NC(=O)Cc1ccccc1 (PhAc-Lys-Arg-Arg-aldehyde)
pIC50 [13]: 5.17

N=C(N)NCCC[C@@H](C=O)NC(=O)[C@H](CCCCN)NC(=O)[C@H](CCCCN)NC(=O)Cc1ccccc1 (PhAc-Lys-Lys-Arg-aldehyde)
pIC50 [13]: 3.78
